In the NIST ThermoML archive (doi:10.1016/j.jct.2015.07.028):

Experiment: molar heat capacity at saturation pressure
Conditions: Small (less than 1 g) adiabatic calorimetry

C=CC(C)(C)O [2-methyl-3-buten-2-ol]
molar heat capacity [J/K/mol]
Conditions | Crystal 1 | Crystal 2
5 K | – | 0.3244
5.363 K | – | 0.4026
5.571 K | – | 0.4523
5.832 K | – | 0.524
6.097 K | – | 0.6053
6.395 K | – | 0.7063
6.727 K | – | 0.8287
7.065 K | – | 0.9656
7.409 K | – | 1.117
7.759 K | – | 1.284
8.114 K | – | 1.466
8.474 K | – | 1.662
8.837 K | – | 1.874
9.202 K | – | 2.099
9.571 K | – | 2.338
9.942 K | – | 2.587
10 K | – | 2.631
10.42 K | – | 2.931
11.01 K | – | 3.375
11.6 K | – | 3.843
12.19 K | – | 4.339
12.79 K | – | 4.858
13.39 K | – | 5.395
14 K | – | 5.954
14.61 K | – | 6.523
15 K | – | 6.921
15.22 K | – | 7.118
15.95 K | – | 7.872
16.79 K | – | 8.742
17.63 K | – | 9.598
18.48 K | – | 10.46
19.32 K | – | 11.32
20 K | – | 12.04
20.18 K | – | 12.2
21.37 K | – | 13.46
22.9 K | – | 15.06
24.44 K | – | 16.66
25 K | – | 17.22
25.98 K | – | 18.24
27.53 K | – | 19.75
28.81 K | – | 20.98
30 K | – | 22.12
30.24 K | – | 22.33
31.96 K | – | 23.92
33.85 K | – | 25.59
35 K | – | 26.55
35.75 K | – | 27.18
37.65 K | – | 28.7
39.55 K | – | 30.18
40 K | – | 30.53
41.55 K | – | 31.7
43.65 K | – | 33.27
45 K | – | 34.27
45.75 K | – | 34.79
47.85 K | – | 36.31
49.95 K | – | 37.78
50 K | – | 37.8
52.05 K | – | 39.21
54.16 K | – | 40.59
56.27 K | – | 41.96
58.39 K | – | 43.29
60 K | – | 44.33
60.51 K | – | 44.64
62.64 K | – | 45.97
64.76 K | – | 47.34
66.88 K | – | 48.71
69.01 K | – | 50.1
70 K | – | 50.7
71.24 K | – | 51.62
73.58 K | – | 53.27
75.92 K | – | 55.14
77.87 K | – | 57.21
78.23 K | – | 57.58
78.27 K | – | 57.34
78.34 K | – | 57.57
79.01 K | – | 58.22
79.1 K | – | 58.39
79.23 K | – | 58.44
79.68 K | – | 58.95
79.83 K | – | 59.11
80 K | – | 57.08
80.23 K | – | 59.74
80.33 K | – | 59.84
80.34 K | – | 59.8
80.38 K | – | 59.82
80.93 K | – | 60.61
81.01 K | – | 60.76
81.36 K | – | 61.46
81.48 K | – | 61.53
81.67 K | – | 61.8
82.03 K | – | 62.46
82.27 K | – | 62.81
82.34 K | – | 62.96
82.49 K | – | 63.36
82.57 K | – | 63.46
83 K | – | 64.02
83.12 K | – | 64.33
83.61 K | – | 65.12
83.66 K | – | 65.08
84.19 K | – | 66.18
84.2 K | – | 65.98
84.31 K | – | 66.19
84.72 K | – | 67.2
84.74 K | – | 67.26
84.97 K | – | 67.69
85.28 K | – | 68.9
85.62 K | – | 69.64
85.81 K | – | 71.17
85.82 K | – | 71.29
86.07 K | – | 73.72
86.26 K | – | 73.39
86.33 K | – | 74.69
88.1 K | 61.32 | 62.25
89.48 K | 65.12 | –
89.49 K | 64.37 | –
89.61 K | 64.85 | –
90 K | 62.35 | –
90.04 K | 63.82 | –
90.18 K | 63.5 | –
90.62 K | 63.44 | –
90.78 K | 63.53 | –
90.87 K | 63.45 | –
91.19 K | 63.49 | –
91.32 K | 63.69 | –
91.57 K | 63.46 | –
91.77 K | 63.59 | –
91.97 K | 63.75 | –
92.27 K | 63.73 | –
92.34 K | 63.78 | –
92.92 K | 64.01 | –
92.97 K | 64.05 | –
93.15 K | 64.24 | –
93.36 K | 64.34 | –
93.5 K | 64.26 | –
93.67 K | 64.43 | –
94.08 K | 64.54 | –
94.35 K | 64.76 | –
94.37 K | 64.82 | –
94.67 K | 64.85 | –
95.08 K | 65.12 | –
95.25 K | 65.18 | –
95.42 K | 65.33 | –
95.55 K | 65.34 | –
96.34 K | 65.8 | –
96.44 K | 65.84 | –
96.75 K | 65.99 | –
97.48 K | 66.4 | –
97.95 K | 66.62 | –
98.15 K | 66.74 | –
98.26 K | 66.77 | –
99.15 K | 67.27 | –
99.55 K | 67.5 | –
99.97 K | 67.73 | –
100 K | 67.72 | –
101.8 K | 68.7 | –
101.81 K | 68.72 | –
103.63 K | 69.68 | –
104.26 K | 70.06 | –
105.46 K | 70.68 | –
106.72 K | 71.41 | –
107.3 K | 71.7 | –
109.14 K | 72.73 | –
109.18 K | 72.79 | –
110 K | 73.25 | –
110.98 K | 73.78 | –
111.65 K | 74.18 | –
112.82 K | 74.82 | –
114.12 K | 75.6 | –
114.67 K | 75.87 | –
116.51 K | 76.95 | –
116.6 K | 77.03 | –
118.36 K | 78.04 | –
119.07 K | 78.49 | –
120 K | 78.98 | –
120.2 K | 79.15 | –
121.55 K | 79.98 | –
122.05 K | 80.25 | –
123.9 K | 81.37 | –
124.02 K | 81.49 | –
125.74 K | 82.53 | –
126.49 K | 83.07 | –
127.59 K | 83.73 | –
128.96 K | 84.71 | –
129.43 K | 85.04 | –
130 K | 85.52 | –
131.26 K | 86.38 | –
131.43 K | 86.54 | –
133.1 K | 87.73 | –
133.88 K | 88.39 | –
134.93 K | 89.13 | –
136.33 K | 90.2 | –
136.76 K | 90.46 | –
138.58 K | 91.75 | –
138.78 K | 91.98 | –
140 K | 92.84 | –
140.4 K | 93.1 | –
141.22 K | 93.76 | –
142.22 K | 94.49 | –
143.66 K | 95.62 | –
144.04 K | 95.9 | –
145.85 K | 97.31 | –
146.09 K | 97.56 | –
147.65 K | 98.82 | –
148.5 K | 99.58 | –
149.45 K | 100.3 | –
150 K | 100.8 | –
150.92 K | 101.6 | –
151.37 K | 102 | –
153.32 K | 103.8 | –
153.4 K | 103.9 | –
155.42 K | 105.7 | –
155.71 K | 106 | –
157.44 K | 107.7 | –
158.09 K | 108.4 | –
159.45 K | 109.7 | –
160 K | 110.3 | –
160.45 K | 110.8 | –
161.45 K | 111.8 | –
162.8 K | 113.2 | –
163.44 K | 113.9 | –
165.14 K | 115.7 | –
165.42 K | 116 | –
167.39 K | 118.2 | –
167.47 K | 118.3 | –
